Laboratory results reported in patent publication US10905148B2, “Systems and methods for monitoring of blood lactate and targeting of blood lactate via nutritional support” (Run Them Sweet LLC, priority 2012, dated 2021).

Experiments:
[1] = system: lactate dehydrogenase in red blood cells and the lung parenchyma; conditions: due to lactate dehydrogenase in red blood cells and lung parenchyma; cited from earlier work
[2] = aqueous conditions; cited from earlier work
[3] = Osmolality of infusion solutions; type: physicochemical
Description: In its simplest form, the MCC cocktail would be sodium-L-(+)-Lactate prepared by titrating L-(+)-Lactic acid with NaOH. The following describe such procedures: (24, 52, 55-57). Briefly, the MCC infusion cocktail is prepared by mixing concentrated (30-88%) L-(+)-lactic acid solution (e.g., Sigma-Aldrich or PCCA) in 2 N NaOH to pH 4.8. In the example provided, the starting point is a 30% stock lactic acid solution: 300 g 30% lactic acid stock solution is titrated with 133.3 g 2N NaOH and diluted to 1,000 ml with water. This will produce a 11.2% weight-by-volume (“w/v”) MCC cocktail (sodium-L-(+)-Lactate) with an osmolality approximating 2,000 mOsm/l. Depending on the stock lactic acid solution used, a NaOH titrating solution>2 N may be necessary to neutralize stock lactic acid without exceeding the intended volume. Regardless of the specifics of acid titration, a 1.72% Na^+-lactate aqueous solution is isosmotic (308 mOsm/l); consequently, as initially mixed the above described MCC is far too concentrated to be given in a peripheral vein and will need to be diluted to less than 1,000 mOsm/l (a 5.6% Na^+-lactate solution). In a peripheral arm vein and a 5.0-5.6% Na^+-lactate MCC should be given with normal (0.9%, 308 mOsm/l) saline or another isosmotic solution such as […] (dextrose) in water, commonly called D5W (see more below).
In another version of the simplest form, the MCC cocktail would be sodium-L-(+)-Lactate prepared from the dry, powdered salt in deionized water to the concentration intended [e.g., for an isosmotic solution: 154 mM lactate (plus 154 mM Na^+) total osmolarity 308 mOsm/l], and infused in the above-stated amounts to raise arterial [lactate] to the intended levels.
State of the art is to provide parenteral nutritive support to patients using 5% dextrose (D5W, glucose in water, vide supra). Because glucose (dextrose) has a molecular weight of 180, osmolality of D5W is 278 mM, which in the low range of normal plasma osmolality ([…]). Even though the glucose concentration in D5W is 50 times greater than homeostatic in plasma, in terms of its isosmotic effect with glucose alone being the only solute, D5W is isosmotic. Mixing equal isosmotic solutions such as equal volumes of 154 mM Sanguisal-L and D5W glucose will produce an osmolality in the high end of the normal range. As noted earlier, this slightly elevated osmolality because of sodium content will draw fluid from tissues into the vascular compartment, thus mitigating swelling due to injury (15).

[4] = cited from earlier work
[5] = infusions of 2N Na+-Pyruvate into swine; cited from earlier work
[6] = system: lipases and esterases in human plasma; conditions: cited from earlier work
[7] = lactate clamp procedure, exogenous lactate

CC(=O)C(=O)O [pyruvate]
conversion in circulation/blood [1]: rapidly converted to lactate | stability in aqueous solutions [2]: spontaneous degradation

C[C@H](O)C(=O)[O-].[Na+] [sodium-L-(+)-Lactate]
total osmolarity ([3]; 154 mM lactate plus 154 mM Na+, isosmotic solution): 308 mOsm/l | osmolality ([3]; 1.72% aqueous solution, isosmotic): 308 mOsm/l | osmolality ([3]; 5.6% solution): 1,000 mOsm/l | osmolality ([3]; 11.2% w/v MCC cocktail): ~2,000 mOsm/l | higher blood lactate levels seen/used without ill effects ([4]; sodium lactate MCC infusion): 6 mM

CC(=O)C(=O)[O-].[Na+] [Na^+-Pyruvate, sodium-L-(+)-Pyruvate]
arterial [lactate] [5]: 8 mM | arterial [pyruvate] [5]: 3.5 mM

Arginyl lactate
dissociation of individual units at neutral pH ([6]; neutral pH as exists in human plasma): dissociate spontaneously

CC(O)C(=O)OCC(COC(=O)C(C)O)OC(=O)C(C)O (stereo not drawn) [Glycerol tri-lactate, glycerol tri-lactate]
dissociation of individual units in human plasma ([6]; lipases and esterases in human plasma): rapidly dissociate

CC(O)C(=O)O (stereo not drawn) [lactate, 2-hydroxy-propionate]
safety of route and amount of vascular lactate administration ([4]; approximately 3 mg/kg/min, vascular): safe | blood pH [4, 7]: raises pH | effects on plasma electrolytes [4, 7]: without major effects | side effects ([4]; oral or intravenous administration): no apparent side effects except mild alkalosis
